Laboratory results as given in publication PMC4163838 (The Biochemical journal, 2014).

Tests used:
[1] = target: T1, AKR1D1 (human steroid 5β-reductase) (Homo sapiens, UniProt P51857); test: fluorescence titration; type: binding
T1 sequence (P51857 1-326): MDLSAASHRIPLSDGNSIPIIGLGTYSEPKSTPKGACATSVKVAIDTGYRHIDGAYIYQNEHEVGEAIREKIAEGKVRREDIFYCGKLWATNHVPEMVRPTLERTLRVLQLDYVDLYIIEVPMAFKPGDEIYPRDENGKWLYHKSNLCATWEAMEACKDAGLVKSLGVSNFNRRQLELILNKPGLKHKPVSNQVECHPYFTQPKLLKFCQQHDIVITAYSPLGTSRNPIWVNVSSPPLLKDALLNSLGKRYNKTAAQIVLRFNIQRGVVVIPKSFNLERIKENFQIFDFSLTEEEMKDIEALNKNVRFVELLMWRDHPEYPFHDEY

[2] = target: T1, AKR1D1 (human steroid 5β-reductase); test: stopped-flow binding, energy transfer fluorescence; conditions: biphasic binding to free enzyme; 37 °C, pH 6.0, 4 % acetonitrile
[3] = target: T1, AKR1D1 (human steroid 5β-reductase); test: stopped-flow competition with excess NADPH, energy transfer fluorescence; type: binding; conditions: dissociation rate constant from binary complex; 37 °C, pH 6.0, 4 % acetonitrile

Row | Compound | Kd [1] | further results
1 | CC(C)CCC[C@@H](C)[C@H]1CC[C@H]2[C@@H]3[C@H](O)CC4=CC(=O)CC[C@]4(C)[C@H]3CC[C@]12C [7α-hydroxycholestenone, 7α-hydroxy-4-cholesten-3-one] | 1.3 ± 0.1 µM | 
2 | NC(=O)C1=CN([C@@H]2O[C@H](COP(=O)(O)OP(=O)(O)OC[C@H]3O[C@@H](n4cnc5c(N)ncnc54)[C@H](OP(=O)(O)O)[C@@H]3O)[C@@H](O)[C@H]2O)C=CC1 [NADPH] |  | stopped-flow binding, energy transfer fluorescence [2]: AKR1D1 was mixed with NADPH and the process of NADPH binding to AKR1D1 was directly monitored
3 | NC(=O)c1ccc[n+]([C@@H]2O[C@H](COP(=O)(O)OP(=O)(O)OC[C@H]3O[C@@H](n4cnc5c(N)ncnc54)[C@H](OP(=O)(O)O)[C@@H]3O)[C@@H](O)[C@H]2O)c1 [NADP^+] |  | koff [3]: 0.36 ± 0.01 s⁻¹
4 | CC(C)(C)NC(=O)[C@H]1CC[C@H]2[C@@H]3CC[C@H]4NC(=O)C=C[C@]4(C)[C@H]3CC[C@]12C [finasteride] | 1.14 ± 0.09 µM | 
